# Data: ChEMBL document CHEMBL3885881, “DrugMatrix”
# Legend:
# [1] = species on record: Rattus norvegicus; format: toxicity, organism-based, Sprague-Dawley; details: in vivo, po, 500 mg/kg, 24 h, route oral GAVAGE, dose level High, time 1 day, vehicle .5 % CMC
# Description: DrugMatrix - Regimen: Single
# [2] = species on record: Rattus norvegicus; assay: DrugMatrix - Regimen: Daily Repeat; format: toxicity, organism-based, Sprague-Dawley; parameters: regimen Daily Repeat, gender Male, age 6-8 weeks; details: in vivo, po, 500 mg/kg, 72 h, route oral GAVAGE, dose level High, time 3 day, vehicle .5 % CMC
smiles,measurement,setting,value
Clc1ccccc1 [CHLOROBENZENE],ABSOLUTE EOSINOPHIL,[1]; tissue Blood,0 CELLS/uL
same,ABSOLUTE LYMPHOCYTE,[1]; tissue Blood,9295.67 CELLS/uL
same,ABSOLUTE MONOCYTE,[1]; tissue Blood,616 CELLS/uL
same,ABSOLUTE SEGMENTED NEUTROPHIL,[1]; tissue Blood,1621.67 CELLS/uL
same,BASOPHIL,[1]; tissue Blood,0%
same,EOSINOPHIL,[1]; tissue Blood,0%
same,ERYTHROCYTE COUNT,[1]; tissue Blood,6.3 x10E6/uL
same,HEMATOCRIT,[1]; tissue Blood,39.37%
same,HEMOGLOBIN,[1]; tissue Blood,14.03 G/DL
same,LEUKOCYTE COUNT,[1]; tissue Blood,11.53 x10E3/uL
same,LYMPHOCYTE,[1]; tissue Blood,80.67%
same,MEAN CORPUSCULAR HEMOGLOBIN,[1]; tissue Blood,22.3 pg
same,MEAN CORPUSCULAR HEMOGLOBIN CONCENTRATION,[1]; tissue Blood,35.67 G/DL
same,MEAN CORPUSCULAR VOLUME,[1]; tissue Blood,62.53 fL
same,MONOCYTE,[1]; tissue Blood,5.33%
same,NEUTROPHIL,[1]; tissue Blood,14%
same,NUCLEATED RED BLOOD CELLS,[1]; tissue Blood,0 /100WBC
same,PLATELET COUNT,[1]; tissue Blood,1230.33 x10E3/uL
same,ALANINE AMINOTRANSFERASE,[1]; tissue Plasma,176 u/L
same,ALBUMIN,[1]; tissue Plasma,4.43 G/DL
same,ALKALINE PHOSPHATASE,[1]; tissue Plasma,416.33 u/L
same,ASPARTATE AMINOTRANSFERASE,[1]; tissue Plasma,280 u/L
same,BLOOD UREA NITROGEN,[1]; tissue Plasma,20 mg/dL
same,CARBON DIOXIDE,[1]; tissue Plasma,28.67 mmol/L
same,CHLORIDE,[1]; tissue Plasma,99.33 MEQ/L
same,CHOLESTEROL,[1]; tissue Plasma,69.67 mg/dL
same,CREATININE,[1]; tissue Plasma,0.23 mg/dL
same,GLUCOSE,[1]; tissue Plasma,154.33 mg/dL
same,LACTATE DEHYDROGENASE,[1]; tissue Plasma,419.67 u/L
same,LIPASE,[1]; tissue Plasma,10.67 u/L
same,PHOSPHORUS,[1]; tissue Plasma,12.9 mg/dL
same,POTASSIUM,[1]; tissue Plasma,5.56 MEQ/L
same,SODIUM,[1]; tissue Plasma,146.57 MEQ/L
same,TOTAL BILIRUBIN,[1]; tissue Plasma,0.23 mg/dL
same,TOTAL PROTEIN,[1]; tissue Plasma,6.53 G/DL
same,URIC ACID,[1]; tissue Plasma,1.4 mg/dL
same,ABSOLUTE BASOPHIL,[2]; tissue Blood,0 CELLS/uL
same,ABSOLUTE EOSINOPHIL,[2]; tissue Blood,274.33 CELLS/uL
same,ABSOLUTE LYMPHOCYTE,[2]; tissue Blood,9310 CELLS/uL
same,ABSOLUTE MONOCYTE,[2]; tissue Blood,211.33 CELLS/uL
same,ABSOLUTE SEGMENTED NEUTROPHIL,[2]; tissue Blood,771 CELLS/uL
same,BASOPHIL,[2]; tissue Blood,0%
same,EOSINOPHIL,[2]; tissue Blood,2.33%
same,ERYTHROCYTE COUNT,[2]; tissue Blood,6.63 x10E6/uL
same,HEMATOCRIT,[2]; tissue Blood,39.23%
same,HEMOGLOBIN,[2]; tissue Blood,14.07 G/DL
same,LEUKOCYTE COUNT,[2]; tissue Blood,10.57 x10E3/uL
same,LYMPHOCYTE,[2]; tissue Blood,88.33%
same,MEAN CORPUSCULAR HEMOGLOBIN,[2]; tissue Blood,21.2 pg
same,MEAN CORPUSCULAR HEMOGLOBIN CONCENTRATION,[2]; tissue Blood,35.9 G/DL
same,MEAN CORPUSCULAR VOLUME,[2]; tissue Blood,59.17 fL
same,MONOCYTE,[2]; tissue Blood,2%
same,NEUTROPHIL,[2]; tissue Blood,7.33%
same,NUCLEATED RED BLOOD CELLS,[2]; tissue Blood,0 /100WBC
same,PLATELET COUNT,[2]; tissue Blood,768.67 x10E3/uL
same,ALANINE AMINOTRANSFERASE,[2]; tissue Plasma,64 u/L
same,ALBUMIN,[2]; tissue Plasma,4.1 G/DL
same,ALKALINE PHOSPHATASE,[2]; tissue Plasma,361.67 u/L
same,ASPARTATE AMINOTRANSFERASE,[2]; tissue Plasma,100.33 u/L
same,BLOOD UREA NITROGEN,[2]; tissue Plasma,17.67 mg/dL
same,CARBON DIOXIDE,[2]; tissue Plasma,26.33 mmol/L
same,CHLORIDE,[2]; tissue Plasma,103.33 MEQ/L
same,CHOLESTEROL,[2]; tissue Plasma,86.67 mg/dL
same,CREATININE,[2]; tissue Plasma,0.21 mg/dL
same,GLUCOSE,[2]; tissue Plasma,184.33 mg/dL
same,LACTATE DEHYDROGENASE,[2]; tissue Plasma,325.33 u/L
same,LIPASE,[2]; tissue Plasma,9.67 u/L
same,PHOSPHORUS,[2]; tissue Plasma,14.17 mg/dL
same,POTASSIUM,[2]; tissue Plasma,5.77 MEQ/L
same,SODIUM,[2]; tissue Plasma,147.63 MEQ/L
same,TOTAL BILIRUBIN,[2]; tissue Plasma,0.17 mg/dL
same,TOTAL PROTEIN,[2]; tissue Plasma,5.83 G/DL
same,URIC ACID,[2]; tissue Plasma,2.13 mg/dL
